Assay results taken from patent publication US8399681B2, “Substituted aminothiazolone indazoles as estrogen related receptor-alpha modulators” (Janssen Pharmaceutica NV, priority 2009, dated 2013).

Each compound was assayed against T1, ERR1 (also known as ERR-α or ERR-1) (Homo sapiens, UniProt P11474) (assay: TR-FRET assay (disruption of co-activator peptide binding)). Details: 6His-tagged ERR1 LBD, GST-hSRC2 co-activator polypeptide; average of 3 independent experiments.
T1 sequence (P11474 193-421 limits assumed): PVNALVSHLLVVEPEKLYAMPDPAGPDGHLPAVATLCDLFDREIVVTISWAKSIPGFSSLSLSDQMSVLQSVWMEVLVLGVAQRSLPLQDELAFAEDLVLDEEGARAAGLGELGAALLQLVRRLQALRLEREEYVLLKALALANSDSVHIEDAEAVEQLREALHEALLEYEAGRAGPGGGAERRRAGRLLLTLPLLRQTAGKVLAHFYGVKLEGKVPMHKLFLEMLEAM
Type: biochemical
Method: Time-Resolved Fluorescence Resonance Energy Transfer (TR-FRET) experiments were performed to examine the functional response of ERR1 (also known as ERR-α or ERR-1) ligands. The TR-FRET assay described herein relied on the conformation of ERR1 for binding to a co-activator peptide: when a test compound binds to ERR1 and alters its conformation, it can disrupt the binding of the co-activator peptide. The components of this homogeneous secondary assay included: the ^6His-tagged-ERR1LBD, a GST-labeled-hSRC2 co-activator polypeptide and a fluorescent donor/acceptor pair from CIS bio international htrf/bioassays (Bedford, Mass.) using both an α-GST Europium Cryptate (Eu) label and an α^6His-XL665 (allophycocyanin) fluorophore.
For TR-FRET measurements, the reaction was buffered in 25 mM Tris pH 8, 2.5 mM Hepes, 20 mM KCl, 1 mM DTT, and 0.05 mg/mL BSA (-lipids). The final concentrations of reagents were 6 nM of ERR1LBD, 6 nM GST-SRC-2 peptide, 30 nM Eu cryptate, and 7.5 nM XL665. Reactions were allowed to reach equilibrium at 25° C. for 4-18 hours before collecting data on the Analyst from LJL Biosystems (Molecular Devices Sunnyvale, Calif.). As a time-resolved method, the samples were excited at […] and emission was collected for 1 ms at both 615 and 665 nm with delays of 400 and 75 μs, respectively. Dose response curves were fitted using a hyperbolic equation and the data reported is the average of 3 independent experiments.

EC50 | SMILES
3 nM | COc1ccc(Cn2ncc3cc(/C=C4\SC(N5CCN(C)CC5)=NC4=O)ccc32)c(C(F)(F)F)c1 [Compound 21, 5-[1-(4-Methoxy-2-trifluoromethyl-benzyl)-1H-indazol-5-ylmethylene]-2-(4-methyl-piperazin-1-yl)-thiazol-4-one]
11.4 nM | CN1CCN(C2=NC(=O)/C(=C/c3ccc4c(cnn4Cc4ccc(O)cc4C(F)(F)F)c3)S2)CC1 [Compound 22, 5-[1-(4-Hydroxy-2-trifluoromethyl-benzyl)-1H-indazol-5-ylmethylene]-2-(4-methyl-piperazin-1-yl)-thiazol-4-one]
10.4 nM | CN1CCN(C2=NC(=O)/C(=C/c3ccc4c(cnn4Cc4ccc(OS(C)(=O)=O)cc4C(F)(F)F)c3)S2)CC1 [Compound 23, Methanesulfonic acid 4-{5-[2-(4-methyl-piperazin-1-yl)-4-oxo-4H-thiazol-5-ylidenemethyl]-indazol-1-ylmethyl}-3-trifluoromethyl-phenyl ester]
520 nM | COCCOc1ccc(Cn2ncc3cc(/C=C4\SC(N5CCN(C)CC5)=NC4=O)ccc32)c(C(F)(F)F)c1 [Compound 24, 5-{1-[4-(2-Methoxy-ethoxy)-2-trifluoromethyl-benzyl]-1H-indazol-5-ylmethylene}-2-(4-methyl-piperazin-1-yl)-thiazol-4-one]
68 nM | CN1CCN(C2=NC(=O)/C(=C/c3ccc4c(cnn4Cc4ccc(Cl)cc4Cl)c3)S2)CC1 [Example 25, 5-[1-(2,4-Dichloro-benzyl)-1H-indazol-5-ylmethylene]-2-(4-methyl-piperazin-1-yl)-thiazol-4-one]
4.8 nM | CN1CCN(C2=NC(=O)/C(=C/c3ccc4c(cnn4Cc4ccc(Br)cc4C(F)(F)F)c3)S2)CC1 [Example 26, 5-[1-(4-Bromo-2-trifluoromethyl-benzyl)-1H-indazol-5-ylmethylene]-2-(4-methyl-piperazin-1-yl)-thiazol-4-one]
11 nM | CN1CCN(C2=NC(=O)/C(=C/c3ccc4c(cnn4Cc4ccc(C5CC5)cc4C(F)(F)F)c3)S2)CC1 [Example 27, 5-[1-(4-Cyclopropyl-2-trifluoromethyl-benzyl)-1H-indazol-5-ylmethylene]-2-(4-methyl-piperazin-1-yl)-thiazol-4-one]
59 nM | CN1CCN(C2=NC(=O)/C(=C/c3ccc4c(cnn4Cc4ccc(C(F)(F)F)cc4Br)c3)S2)CC1 [Example 28, 5-[1-(2-Bromo-4-trifluoromethyl-benzyl)-1H-indazol-5-ylmethylene]-2-(4-methyl-piperazin-1-yl)-thiazol-4-one]
38 nM | CN1CCN(C2=NC(=O)/C(=C/c3ccc4c(cnn4Cc4ccc(C(F)(F)F)cc4C4CC4)c3)S2)CC1 [Example 29, 5-[1-(2-Cyclopropyl-4-trifluoromethyl-benzyl)-1H-indazol-5-ylmethylene]-2-(4-methyl-piperazin-1-yl)-thiazol-4-one]
23 nM | C=C(C)c1ccc(Cn2ncc3cc(/C=C4\SC(N5CCN(C)CC5)=NC4=O)ccc32)c(C(F)(F)F)c1 [Example 30, 5-[1-(4-Isopropenyl-2-trifluoromethyl-benzyl)-1H-indazol-5-ylmethylene]-2-(4-methyl-piperazin-1-yl)-thiazol-4-one]
4.6 nM | O=C1N=C(N2CCN(CCO)CC2)S/C1=C\c1ccc2c(cnn2Cc2ccc(C3CC3)cc2C(F)(F)F)c1 [Example 31, 5-[1-(4-Cyclopropyl-2-trifluoromethyl-benzyl)-1H-indazol-5-ylmethylene]-2-[4-(2-hydroxy-ethyl)-piperazin-1-yl]-thiazol-4-one]
10 nM | COc1ccc(Cn2ncc3cc(/C=C4\SC(N5C[C@@H](O)[C@H](O)C5)=NC4=O)ccc32)c(C(F)(F)F)c1 [Example 32, 2-(3R,4R-Dihydroxy-pyrrolidin-1-yl)-5-[1-(4-methoxy-2-trifluoromethyl-benzyl)-1H-indazol-5-ylmethylene]-thiazol-4-one]
4.4 nM | COc1ccc(Cn2ncc3cc(/C=C4\SC(N5CC(C(=O)O)C5)=NC4=O)ccc32)c(C(F)(F)F)c1 [Example 33, 1-{5-[1-(4-M ethoxy-2-trifluoromethyl-benzyl)-1H-indazol-5-ylmethylene]-4-oxo-4,5-dihydro-thiazol-2-yl}-azetidine-3-carboxylic acid]
7.5 nM | COc1ccc(Cn2ncc3cc(/C=C4\SC(N5CCNCC5)=NC4=O)ccc32)c(C(F)(F)F)c1 [Example 34, 5-[1-(4-Methoxy-2-trifluoromethyl-benzyl)-1H-indazol-5-ylmethylene]-2-piperazin-1-yl-thiazol-4-one]
5.4 nM | O=C1N=C(N2CC(C(=O)O)C2)S/C1=C\c1ccc2c(cnn2Cc2ccc(Br)cc2C(F)(F)F)c1 [Example 36, 1-{5-[1-(4-Bromo-2-trifluoromethyl-benzyl)-1H-indazol-5-ylmethylene]-4-oxo-4,5-dihydro-thiazol-2-yl}-azetidine-3-carboxylic acid]
5.3 nM | O=C1N=C(N2CCC[C@H](C(=O)O)C2)S/C1=C\c1ccc2c(cnn2Cc2ccc(C(F)(F)F)cc2C(F)(F)F)c1 [Example 37, 1-{5-[1-(2,4-Bis-trifluoromethyl-benzyl)-1H-indazol-5-ylmethylene]-4-oxo-4,5-dihydro-thiazol-2-yl}-piperidine-3-(S)-carboxylic acid]
9 nM | O=C1N=C(N2CCC[C@@H](C(=O)O)C2)S/C1=C\c1ccc2c(cnn2Cc2ccc(C(F)(F)F)cc2C(F)(F)F)c1 [Example 38, 1-{5-[1-(2,4-Bis-trifluoromethyl-benzyl)-1H-indazol-5-ylmethylene]-4-oxo-4,5-dihydro-thiazol-2-yl}-piperidine-3-(R)-carboxylic acid]
15 nM | COc1ccc(Cn2ncc3cc(/C=C4\SC(N5CCC(C(=O)O)CC5)=NC4=O)ccc32)c(C(F)(F)F)c1 [Example 41, 1-{5-[1-(4-M ethoxy-2-trifluoromethyl-benzyl)-1H-indazol-5-ylmethylene]-4-oxo-4,5-dihydro-thiazol-2-yl}-piperidine-4-carboxylic acid]
4.2 nM | CN1CCCN(C2=NC(=O)/C(=C/c3ccc4c(cnn4Cc4ccc(C(F)(F)F)cc4C(F)(F)F)c3)S2)CC1 [Example 42, 5-[1-(2,4-Bis-trifluoromethyl-benzyl)-1H-indazol-5-ylmethylene]-2-(4-methyl-[1,4]diazepan-1-yl)-thiazol-4-one]
11 nM | O=C1N=C(N2CCC[C@@H]2C(=O)O)S/C1=C\c1ccc2c(cnn2Cc2ccc(C(F)(F)F)cc2C(F)(F)F)c1 [Example 43, 1-{5-[1-(2,4-Bis-trifluoromethyl-benzyl)-1H-indazol-5-ylmethylene]-4-oxo-4,5-dihydro-thiazol-2-yl}-pyrrolidine-2-(R)-carboxylic acid]
3.2 nM | O=C1N=C(N2CCC[C@H]2C(=O)O)S/C1=C\c1ccc2c(cnn2Cc2ccc(Cl)cc2C(F)(F)F)c1 [Example 44, 1-{5-[1-(4-Chloro-2-trifluoromethyl-benzyl)-1H-indazol-5-ylmethylene]-4-oxo-4,5-dihydro-thiazol-2-yl}-pyrrolidine-2-(S)-carboxylic acid]
34 nM | COc1ccc(Cn2ncc3cc(/C=C4\SC(N5CCC[C@@H]5C(=O)O)=NC4=O)ccc32)c(C(F)(F)F)c1 [Example 45, 1-{5-[1-(4-M ethoxy-2-trifluoromethyl-benzyl)-1H-indazol-5-ylmethylene]-4-oxo-4,5-dihydro-thiazol-2-yl}-pyrrolidine-2-(R)-carboxylic acid]
27 nM | O=C1N=C(N2CCC[C@@H]2C(=O)O)S/C1=C\c1ccc2c(cnn2Cc2ccc(Cl)cc2C(F)(F)F)c1 [Example 46, 1-{5-[1-(4-Chloro-2-trifluoromethyl-benzyl)-1H-indazol-5-ylmethylene]-4-oxo-4,5-dihydro-thiazol-2-yl}-pyrrolidine-2-(R)-carboxylic acid]
8.2 nM | O=C1N=C(N2CCNC[C@@H]2C(=O)O)S/C1=C\c1ccc2c(cnn2Cc2ccc(C(F)(F)F)cc2C(F)(F)F)c1 [Example 47, 1-{5-[1-(2,4-Bis-trifluoromethyl-benzyl)-1H-indazol-5-ylmethylene]-4-oxo-4,5-dihydro-thiazol-2-yl}piperazine-2-(R)-carboxylic acid]
14.3 nM | O=C1N=C(N2CCC[C@H](C(=O)O)C2)S/C1=C\c1ccc2c(cnn2Cc2ccc(Cl)cc2C(F)(F)F)c1 [Example 48, 1-{5-[1-(4-Chloro-2-trifluoromethyl-benzyl)-1H-indazol-5-ylmethylene]-4-oxo-4,5-dihydro-thiazol-2-yl}piperidine-3-(S)-carboxylic acid]
6 nM | O=C1N=C(N2CC[C@H]2C(=O)O)S/C1=C\c1ccc2c(cnn2Cc2ccc(C(F)(F)F)cc2C(F)(F)F)c1 [Example 49, 1-{5-[1-(2,4-Bis-trifluoromethyl-benzyl)-1H-indazol-5-ylmethylene]-4-oxo-4,5-dihydro-thiazol-2-yl}-azetidine-2-(S)-carboxylic acid]
